Values joined by “and” are separate entries in the source; they are usually repeats but may differ in a detail not shown here. Identical values can stand only once.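 48-hour exposure; five concentrations; linearly interpolated endpoints. At the GI50, growth is halved. Definition used: TGI = concentration required for complete inhibition of growth.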

Common to all, as to assay: NCI-60 cell line screen, 48 h
Experiment [1] concerns CAKI-1 renal.
Experiment [2] has as its system MALME-3M melanoma.
The test system of experiment [3] is MOLT-4 leukemia.
The subject of experiment [4] is NCI-H226 lung.
Experiment [5] deals with NCI-H522 lung.
For experiment [6], the system named is OVCAR-4 ovarian.
In experiment [7] the test system is SK-OV-3 ovarian.
In experiment [8] the test system is TK-10 renal.
Experiment [9] concerns UACC-257 melanoma.

In the case of `Cc1ccc(C(SCC(N)C(=O)O)(c2ccccc2)c2ccccc2)cc1` (stereo not given), the GI50 was 0.151 µM in [1]; 0.244 µM in experiment [3]; 9.29 µM in [4]; 0.0403 µM in [5]; 22.8 µM in experiment [6]; 0.0748 µM in [7]. In addition, the GI50 in [8] was 1.22 µM; in experiment [9] it was 22.8 µM. Besides, the TGI in experiment [1] is greater than 100 µM; in [2], greater than 100 µM; in [3], greater than 100 µM; in experiment [4], 42.9 µM; in [5], 85.1 µM; in experiment [6] it was greater than 100 µM. Besides, the TGI was greater than 94.7 µM in experiment [7], greater than 100 µM in experiment [8] and greater than 100 µM in experiment [9].

Take `N=C(N)c1ccc(NCCOCCNc2ccc(C(=N)N)cc2)cc1`: the GI50 is greater than 100 µM in experiment [1]; 29.7 µM in experiment [2]; greater than 100 µM in experiment [3]; 13.3 µM in [4]; 29.8 µM in experiment [5]; 34.1 µM in experiment [6]. Moreover, the results for the GI50 in [7], in [8] and in experiment [9] were 7.86 µM, greater than 100 µM and greater than 100 µM, respectively. In addition, the TGI is greater than 100 µM in experiment [1]; 87 µM in experiment [2]; greater than 100 µM in [3]; greater than 100 µM in experiment [4]; greater than 100 µM in experiment [5]; greater than 100 µM in experiment [6]. The TGI in experiment [7] is 51.7 µM; in experiment [8], greater than 100 µM; in [9], greater than 100 µM.

In the case of `CCC(=O)Nc1ccccc1C#C/C=C\C#Cc1ccccc1C(F)(F)F`, the GI50 is 1.53 µM in [1]; 7.54 µM in experiment [2]; 4.11 µM in [3]; 6.91 µM in experiment [4]; 1.33 µM in experiment [5]; 14.6 µM in [6]. For the same compound, the GI50 in experiment [7] is 1.7 µM; in experiment [8], 4.46 µM; in [9], 7.17 µM. The TGI is greater than 30.4 µM in experiment [1]; greater than 50 µM in experiment [2]; greater than 23.3 µM in [3]; greater than 50 µM in [4]; 6.09 µM in experiment [5]; greater than 50 µM in experiment [6]. For the same compound, the TGI in experiment [7] was greater than 50 µM; in experiment [8] it was greater than 50 µM; in experiment [9] it was greater than 45.2 µM.

Turning to `CC(=O)[CH-]C(=O)c1ccccc1.CC(=O)[CH-]C(=O)c1ccccc1.Cl.[O-]c1ccccn1.[O-]c1ccccn1.[Ti+4]`, the GI50 in [1], in experiment [2], in experiment [3], in experiment [4], in experiment [5] and in [6] was greater than 100 µM throughout. Besides, the GI50 in experiment [7] and in [9] was greater than 100 µM each time. Moreover, the TGI in [1], in experiment [2], in [3], in experiment [4], in experiment [5] and in [6] was greater than 100 µM throughout. In addition, the TGI in [7] and in experiment [9] was greater than 100 µM each time.

For the compound `Cc1ccc(C2=Nc3c(N)ncnc3NC(c3ccc4c(c3)OCO4)C2)cc1` (stereo not given), the GI50 is 1.44 µM in [1]; 3.01 µM in experiment [2]; 2.66 µM in experiment [3]; 12.6 µM in experiment [4]; 3.67 µM in experiment [5]; 17.7 µM in experiment [6]. Also, the GI50 in experiment [7] was 15.8 µM; in experiment [8] it was 4.47 µM; in experiment [9] it was 40 µM. The TGI in experiment [1] was 19.1 µM; in [2], 26.8 µM; in experiment [3] it was greater than 100 µM; in [4], 47.9 µM; in experiment [5] it was 23.2 µM; in experiment [6], 74.9 µM. The TGI in experiment [7] was 52.3 µM; in experiment [8] it was 21.1 µM; in experiment [9], greater than 100 µM.

For the compound `CN(C)CC(C(=O)Cc1ccccc1)c1ccccc1` (stereo not given), the GI50 in experiment [1] was 1.57 µM; in experiment [2], 1.74 µM; in [3], 3.02 µM; in experiment [4], 13.8 µM; in experiment [5] it was 1.74 µM; in experiment [6] it was 2.35 µM. The GI50 in experiment [7] is 18.4 µM; in experiment [8], 1.56 µM; in experiment [9] it was 1.79 µM. In addition, the TGI was 3.01 µM in experiment [1]; 3.89 µM in experiment [2]; greater than 100 µM in [3]; 38.3 µM in [4]; 3.47 µM in experiment [5]; 5.87 µM in experiment [6]. Further, the TGI stood at 36.2 µM in [7], 3.1 µM in experiment [8] and 4.25 µM in experiment [9].

On to `Cc1cc(C(=O)NC(CCC(=O)O)C(=O)O)sc1CCC1CNc2nc(N)[nH]c(=O)c2C1` (stereo not given), for which the GI50 is < 0.018 µM and 0.0234 µM in experiment [1]; 0.0297 µM and 0.0453 µM in experiment [3]; less than 0.0128 µM in experiment [4]; < 0.0226 µM and 0.0546 µM in experiment [5]; 0.121 µM and 0.167 µM in [6]; 0.0103 µM and 0.0181 µM in experiment [7]. For the same compound, the GI50 in experiment [8] was 0.0355 µM and 0.065 µM; in experiment [9], 0.0722 µM and 0.228 µM. Further, the TGI in experiment [1], in experiment [2], in [3], in experiment [4], in experiment [5] and in [6] was greater than 100 µM throughout. In addition, the TGI in experiment [7], in [8] and in experiment [9] was greater than 100 µM throughout.

As to `C[n+]1c(-c2ccc(/C=N/NC(=O)c3ccc(C(=O)N/N=C/c4ccc(-c5cn6ccccc6[n+]5C)cc4)cc3)cc2)cn2ccccc21`, the GI50 in experiment [1] is greater than 1000 µM; in experiment [2], 208 µM; in experiment [3], 135 µM; in experiment [4], 124 µM; in experiment [5], 186 µM; in experiment [6], 623 µM. Further, the GI50 in [7] was 281 µM; in [8], 228 µM; in [9] it was 182 µM. For the same compound, the TGI in [1] was greater than 1000 µM; in experiment [2], > 85.6 µM and 422 µM; in [3] it was 292 µM; in experiment [4] it was 283 µM; in [5], 326 µM; in [6], greater than 1000 µM. Also, the TGI in [7] is 494 µM; in experiment [8], 374 µM; in experiment [9] it was 97.5 µM and 322 µM.

The values above are taken from PubChem BioAssay (NCI).
